Values of other authors in patent US20090048334A1, “Sodium ascorbate solubilisate” (priority 2004, published 2009).

Conditions: for content of the agent in an aqueous solution: over an extended period of time

Row | Compound | added ascorbic acid present (aqueous ascorbic acid solution, after 30 days) | content of the agent in an aqueous solution
1 | O=C1O[C@H]([C@@H](O)CO)C(O)=C1O [ascorbic acid] | approximately 70% | –
2 | CCCCCCCCCCCCCCCC(=O)OC[C@H](O)[C@H]1OC(=O)C(O)=C1O [ascorbylpalmitate] | – | remains constant
3 | O=C1O[C@H]([C@@H](O)CO)C([O-])=C1OP(=O)([O-])[O-].[Na+].[Na+].[Na+] [sodium ascorbic phosphate] | – | remains constant
